According to US20170314056A1, “METHOD OF USING NEAR INFRARED FLUORESCENT DYES FOR IMAGING AND TARGETING CANCERS” (priority 2010, published 2017):
“Also recorded” adds a separate entry of the source. Read-outs that look alike come from different tables or passages of the source.

What was measured:
human cancer cells = assay: Uptake of NIR dyes by cultured human cancer cell lines (confocal NIR imaging); type: cell-based
Protocol: Cells (1×10^4/well) were seeded on vitronectin-coated four-well chamber slides (Nalgen Nunc, Naperville, Ill.) and incubated with T-medium containing 5% FBS for 24 h. After the cells had attached to the chamber slides, the cells were washed with PBS (Phosphate Buffered Saline) and exposed to the cyanine dye at a concentration of 20 μM in T-medium. The slides were incubated at 37° C. for 30 min, washed twice with PBS to remove excess dyes, and cells were fixed with 10% formaldehyde at 4° C. The slides were then washed twice with PBS and covered with glass coverslips with an aqueous mounting medium (Sigma-Aldrich, St. Louis, Mo.). Images were recorded by confocal laser microscopy (Zeiss LSM 510 META, Germany) using a 633 nm excitation laser and 670-810 nm long pass filter, or a fluorescence microscope (Olympus 1×71; Olympus, Melville, N.Y.) equipped with a 75 W Xenon lamp and an Indo-Cyanine Green filter cube (excitation 750-800 nm; emission 820-860 nm) (Chroma, Rockingham, Vt.).
Cells (1×10^4/well) were seeded on vitronectin-coated four-well chamber slides (Nalgen Nunc, Naperville, Ill.) and incubated with T-medium containing 5% FBS for 24 h. After the cells had attached to the chamber slides, the cells were washed with PBS (Phosphate Buffered Saline) and exposed to the cyanine dye at a concentration of 20 μM in medium. The slides were incubated at 37° C. for 30 min, washed twice with PBS to remove excess dyes, and fixed with 10% formaldehyde at 4° C. The slides were then washed twice with PBS and covered with glass coverslips with aqueous mounting medium (Sigma-Aldrich, St. Louis, Mo.). Images were recorded by confocal laser microscopy (Zeiss LSM 510 META, Germany) equipped with 633 nm excitation laser and 670-810 nm long pass filter.

[1] = tested on: mouse pancreatic cancer cell lines (PDAC2.3, PDAC3.3, BTC3 and BTC4); assay: Uptake of NIR dyes by mouse pancreatic cancer cell lines; type: cell-based; conditions: PDAC2.3, PDAC3.3, BTC3, BTC4; 20 μM dye
ARCaPM cells [2] = assay: Live-cell kinetics of dye uptake in prostate cancer cells; type: cell-based, human
Protocol: ARCaPM Cells were plated on live-cell imaging chambers from World Precision Instrument (Sarasota, Fla.) overnight. Cells were treated with IR-780 with different concentrations and were imaged using a Perkin-Elmer Ultraview ERS spinning discconfocal microscope. This system was mounted on a Zeiss Axiovert 200m inverted microscope equipped with a 37° C. stage warmer, incubator, and CO2 perfusion. A x63 or x100 Zeiss oil objective (numerical aperture, 1.4) was used for all images and a Z-stack was created using the attached piezo electric z-stepper motor. The 633 nm laser line of an argon ion laser (set at 60% power) was used to excite the IR-780 organic dye. For each comparison, the exposure time and laser intensity was kept identical for accurate intensity measurement. Pixel intensity was quantitated using Metamorph 6.1 (Universal Imaging, Downingtown, Pa.) and the mean pixel intensity was generated as grey level using the Region Statistics feature on the software.
(§1) Cells were plated on live-cell imaging chambers (World Precision Instrument, Sarasota, Fla.) overnight. Cells were exposed to cyanine dyes at different concentrations and dye uptake was evaluated by a Perkin-Elmer Ultraview ERS spinning disc confocal microscope. This system was mounted on a Zeiss Axiovert 200m inverted microscope equipped with a 37° C. stage warmer, incubator, and constant CO2 perfusion. A 63× or 100× Zeiss oil objective (numerical aperture, 1.4) was used for live cell images and a Z-stack was created using the attached piezoelectric z-stepper motor. The 633 nm laser line of an argon ion laser (set at 60% power) was used to excite the cyanine dyes. […] For comparative studies, the exposure time and laser intensity were kept identical for accurate intensity measurements. Pixel intensity was quantified using Metamorph 6.1 (Universal Imaging, Downingtown, Pa.) and the mean pixel intensity was generated as grey level using the Region Statistics feature on the software (23). To determine the dye uptake by the mitochondria, the mitochondrial tracking dye Mito Tracker Orange CMTMROS (Molecular Probes, Carlsbad, Calif.) was used. To determine the dye localization in lysosomes, a lysosome tracking dye, Lyso Tracker Green DND-26 (Molecular Probes, Carlsbad, Calif.), was selected. Imaging of mitochondrial and/or lysosome localization of the cyanine dye was conducted under confocal microscopy (24).
To determine if the cyanine dye uptake and accumulation in cancer cells was dependent upon OATPs, cells were preincubated with 250 μM bromosulfophthalein (BSP), a competitive inhibitor of organic anion transporting peptides (OATPs) (25), for 5 minutes prior to incubating the cells with cyanine dyes. The uptake and accumulation of cyanine dyes in the presence and absence of BSP were conducted in the stage warmer incubator for a period of 35 minutes. The levels of cyanine dye taken up and accumulated in normal prostate (P69) and prostate cancer (ARCaPM) cells were determined and compared on a real-time basis.

ARCaPM cells [3] = assay: Subcellular co-localization with mitochondria and lysosome tracking dyes; type: cell-based, human; conditions: Mito Tracker and Lyso Tracker co-staining
Protocol: as §1, with “Imaging of mitochondrial and/or lysosome localization of the cyanine dye was conducted under confocal microscopy (24).” left out

renal cancer cells = assay: Subcellular co-localization in renal cancer cells; type: cell-based, human; conditions: Mito tracker and Lyso tracker overlay
Protocol: To determine the dye uptake by the mitochondria, the mitochondrial tracking dye, Mito Tracker Orange CMTMROS (Molecular Probes, Carlsbad, Calif.), was used. To determine the dye localization in lysosomes, a lysosome tracking dye, Lyso Tracker Green DND-26 (Molecular Probes, Carlsbad, Calif.), was selected. Images of mitochondrial and/or lysosome localization of the cyanine dye were merged and evidence of co-localization of the cyanine dye and tracking dyes were assessed by confocal imaging using a previously established protocol.^69

[4] = for body weight: daily intraperitoneal injection, Balb/c mice
Protocol: In control mice, the same volume of PBS was injected. The body weight and lethality of these mice were closely followed for 28 days.

[5] = tested on: human renal cancer cells (SN12C); assay: Detection of renal cancer cells in blood by NIR imaging and flow cytometry; type: cell-based; conditions: SN12C cells spiked into whole blood; 20 μM IR-783
Protocol: Citrated whole mouse blood samples were collected from same inbred athymic nude mice. A known number of human renal cancer cells (SN12C) were added into 3 ml whole mouse blood, and mixed gently with 20 μM IR-783 and incubated for 30 minutes at 37° C. The mononuclear cells and cancer cells were recovered by gradient centrifugation using Histopaque-1077 (Sigma, St. Louis, Mo.) and then diluted with 0.5 ml of 1% paraformaldehyde to inhibit further activation. A sample incubated with PBS served as negative isotype control. The isolated live cells were observed under a Leica TCS SP confocal microscope (Leica Microsystems, Heidelberg, Germany) and samples were excited with 670 nm. All samples were analyzed within 1 hrs of collection in a Becton Dickinson LSRII flow cytometer (Becton Dickinson Biosciences, San Jose, Calif.) with a red laser diode (640 nm) for excitation and cy7 detector for detection and with LYSIS II software.

With “2-[2-[2-Chloro-3-[2-[1,3-dihydro-3,3-dimethyl-1-(4-sulfobutyl)-2H-indol-2-ylidene]-ethylidene]-1-cyclohexen-1-yl]-ethenyl]-3,3-dimethyl-1-(4-sulfobutyl)-3H-indolium [IR-783]” the “uptake of dye by human bladder cancer cell lines” value (human cancer cells) was “strong uptake”, the “uptake of dye by human pancreatic cancer cell lines” value (human cancer cells) was “strong uptake” and the “dye uptake into cancer cells at 0° C.” value (human cancer cells; 0° C., data not shown) was “no dye uptake and none”. The “dye uptake into cancer cells at 37° C.” value (human cancer cells; 37° C., data not shown) was “high”, the “uptake of dye by human renal cancer cells” value (human cancer cells; SN12C, ACHN, Caki-1, 20 μM dye, 30 min) was “significant uptake; also recorded: actively taking up” and the “uptake of dye by human cancer cell lines in culture” value (human cancer cells; panel of prostate, breast, cervical, lung, liver, pancreatic, renal, bladder and leukemia lines, 20 μM dye, 30 min, confocal microscope) was “preferentially taken up and retained by cancer but not normal cells; also recorded: a wide range of cancer cells but not normal cells were taking up these dyes; also recorded: retained in cancerous cells of human origin; also recorded: significant uptake”. For the same substance, the “uptake of dye by mouse pancreatic cancer cell lines” value [1] was “taken up by other malignant cells from both human and mouse; also recorded: significant uptake”, the “uptake of dye in ARCaPM cells compared with normal P69 cells” value (ARCaPM cells [2]; 20 μM dye, live-cell spinning disc confocal) was “significant uptake” and the “early phase of uptake and retention completed” value (ARCaPM cells [2]; ARCaP cells) was 12 min. For the same substance, the “late phase of uptake and retention completed” value (ARCaPM cells [2]; ARCaP cells) was 30 min, the “subcellular localization of the dye” value (ARCaPM cells [3]) was “condense on mitochondrial and lysosomal organelles; also recorded: a large portion of the IR-783 was co-localized with these subcellular organelles” and the “subcellular localization of the dye” value (renal cancer cells) was “co-localization with mitochondrial and lysosome organelles”. The body weight ([4]; 0 day, 1X imaging dose) was 20.29 g, the body weight ([4]; 0 day, 10X imaging dose) was 20.57 g and the body weight ([4]; 0 day, 100X imaging dose) was 19.85 g. The “lethality in treated mice” value ([4]; 100× imaging dose, 28 days) was “no lethality”, the body weight ([4]; 1 day, 1X imaging dose) was 20.20 g and the body weight ([4]; 1 day, 10X imaging dose) was 20.61 g. For the same substance, the body weight ([4]; 1 day, 100X imaging dose) was 19.74 g, the body weight ([4]; 2 day, 1X imaging dose) was 20.23 g and the body weight ([4]; 2 day, 10X imaging dose) was 20.59 g. The body weight ([4]; 2 day, 100X imaging dose) was 20.01 g, the body weight ([4]; 3 day, 1X imaging dose) was 20.32 g and the body weight ([4]; 3 day, 10X imaging dose) was 20.98 g. For the same substance, the body weight ([4]; 3 day, 100X imaging dose) was 20.39 g, the body weight ([4]; 4 day, 1X imaging dose) was 20.34 g and the body weight ([4]; 4 day, 10X imaging dose) was 21.02 g. The body weight ([4]; 4 day, 100X imaging dose) was 20.43 g, the body weight ([4]; 5 day, 1X imaging dose) was 21.00 g and the body weight ([4]; 5 day, 10X imaging dose) was 21.34 g. It also gave a body weight ([4]; 5 day, 100X imaging dose) of 21.01 g, a body weight ([4]; 6 day, 1X imaging dose) of 21.87 g and a body weight ([4]; 6 day, 10X imaging dose) of 21.76 g. The body weight ([4]; 6 day, 100X imaging dose) was 21.23 g, the body weight ([4]; 7 day, 1X imaging dose) was 22.32 g and the body weight ([4]; 7 day, 10X imaging dose) was 22.54 g. The body weight ([4]; 7 day, 100X imaging dose) was 22.00 g, the body weight ([4]; 14 day, 1X imaging dose) was 23.91 g and the body weight ([4]; 14 day, 10X imaging dose) was 24.01 g. The body weight ([4]; 14 day, 100X imaging dose) was 23.76 g, the body weight ([4]; 28 day, 1X imaging dose) was 24.86 g and the body weight ([4]; 28 day, 10X imaging dose) was 24.87 g. The body weight ([4]; 28 day, 100X imaging dose) was 24.61 g, the “flow cytometry discrimination of stained cancer cells” value [5] was “totally identified from normal lymphocytes” and the “visualization of cancer cells in blood under NIR imaging” value [5] was “clearly visualized”.
